This note sets out measurements from US10472364B2 (Calithera Biosciences, Inc., priority 2016, dated 2019).

Each structure is given as a SMILES string.

In the assay the target is endogenous, cell-bound CD73 on SK-MEL-28 cells (Homo sapiens (Human), UniProt P21589). Kind of assay: Inhibition of endogenous, cell-bound CD73 enzyme activity in SK-MEL-28 cells (Malachite Green). The class given is cell-based. Conditions: 100 μM AMP, 30 minutes at room temperature. The procedure: The day before the experiment, 5000 cells were plated per well in a 96-well plate. Cells were washed twice with […] reaction buffer (20 mM HEPES, pH 7.4, 125 mM NaCl, 1 mM KCl, 2 mM MgCl2, 10 mM glucose) to remove residual inorganic phosphate. After washing, assays contained serial dilutions of test compounds and 100 μM of AMP in a total volume of 200 μL reaction buffer, with a final DMSO concentration≤0.5%. After 30 minutes at room temperature, supernatant was removed from the cells. […] The concentration of inorganic phosphate was determined using a phosphate standard curve to determine IC50.
Sequence of endogenous, cell-bound CD73 on SK-MEL-28 cells (P21589 27-574): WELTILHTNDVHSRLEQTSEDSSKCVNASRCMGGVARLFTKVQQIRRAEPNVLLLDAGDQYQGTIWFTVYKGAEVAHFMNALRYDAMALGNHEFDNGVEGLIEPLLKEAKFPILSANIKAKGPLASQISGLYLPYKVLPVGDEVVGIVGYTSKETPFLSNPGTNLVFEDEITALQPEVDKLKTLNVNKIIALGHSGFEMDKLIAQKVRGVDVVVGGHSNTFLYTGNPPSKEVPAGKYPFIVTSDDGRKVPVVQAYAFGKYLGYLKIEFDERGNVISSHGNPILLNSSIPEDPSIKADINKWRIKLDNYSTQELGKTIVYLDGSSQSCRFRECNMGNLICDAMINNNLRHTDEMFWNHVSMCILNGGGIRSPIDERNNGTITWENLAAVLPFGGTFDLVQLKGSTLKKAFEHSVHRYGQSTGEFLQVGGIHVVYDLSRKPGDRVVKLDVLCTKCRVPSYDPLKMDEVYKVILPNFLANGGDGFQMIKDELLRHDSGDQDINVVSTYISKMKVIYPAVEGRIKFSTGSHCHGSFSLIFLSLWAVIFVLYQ

On to `CCOC(=O)C(Cc1ccc(OC(F)(F)F)cc1)(OC[C@H]1O[C@@H](n2cnc3c(N)nc(Cl)nc32)[C@@H](F)[C@@H]1O)C(=O)O` (single isomer, unassigned) [compound 37], for which the 50% inhibitory concentration (IC50) (commonly the point on the concentration scale where inhibition reaches its midpoint) worked out at 0.598 µM. Next, `CCOC(=O)C(Cc1ccc(OC(F)(F)F)cc1)(OC[C@H]1O[C@@H](n2cnc3c(N)nc(Cl)nc32)[C@@H](F)[C@@H]1O)C(=O)O` (single isomer, unassigned) [compound 38]: 1.48 µM.

Consider `COC(=O)C(Cc1ccc(-c2ccccc2)cc1)(OC[C@H]1O[C@@H](n2cnc3c(N)nc(Cl)nc32)[C@@H](F)[C@@H]1O)C(=O)O` (single isomer, unassigned) [compound 81], for which the IC50 came to 2.11 µM. Take `COC(=O)C(Cc1ccc(-c2ccccc2)cc1)(OC[C@H]1O[C@@H](n2cnc3c(N)nc(Cl)nc32)[C@@H](F)[C@@H]1O)C(=O)O` (single isomer, unassigned) [compound 82]: inhibition was half-maximal at 4.12 µM (IC50). Next, `Nc1nc(Cl)nc2c1ncn2[C@@H]1O[C@H](COC(Cc2ccccc2)(C(=O)O)C(=O)O)[C@@H](O)[C@@H]1F` [compound 6, 2-(((2R,3R,4S,5R)-5-(6-amino-2-chloro-9H-purin-9-yl)-4-fluoro-3-hydroxytetrahydro-furan-2-yl)methoxy)-2-benzylmalonic acid]: 0.489 µM.

`Nc1nc(Cl)nc2c1ncn2[C@@H]1O[C@H](COC(Cc2ccc(Cl)nc2)(C(=O)O)C(=O)O)[C@@H](O)[C@@H]1F` [compound 8, 2-(((2R,3R,4S,5R)-5-(6-amino-2-chloro-9H-purin-9-yl)-4-fluoro-3-hydroxytetrahydro-furan-2-yl)methoxy)-2-((6-chloropyridin-3-yl)methyl)malonic acid] returned an IC50 of 0.772 µM. Consider `Nc1nc(Cl)nc2c1ncn2[C@@H]1O[C@H](COC(Cc2cccc(Oc3ccccc3)c2)(C(=O)O)C(=O)O)[C@@H](O)[C@@H]1F` [compound 13, 2-(((2R,3R,4S,5R)-5-(6-amino-2-chloro-9H-purin-9-yl)-4-fluoro-3-hydroxytetrahydrofuran-2-yl)methoxy)-2-(3-phenoxybenzyl)malonic acid], for which the 50% inhibitory concentration (IC50) was determined as 2.19 µM. In the case of `Nc1nc(Cl)nc2c1ncn2[C@@H]1O[C@H](COC(Cc2cccc(OC(F)(F)F)c2)(C(=O)O)C(=O)O)[C@@H](O)[C@@H]1F` [compound 15, 2-(((2R,3R,4S,5R)-5-(6-amino-2-chloro-9H-purin-9-yl)-4-fluoro-3-hydroxytetrahydrofuran-2-yl)methoxy)-2-(3-(trifluoromethoxy)benzyl)malonic acid] it was 1.58 µM. On to `Nc1nc(Cl)nc2c1ncn2[C@@H]1O[C@H](COC(Cc2cccc(C(F)(F)F)c2)(C(=O)O)C(=O)O)[C@@H](O)[C@@H]1F` [compound 16, 2-(((2R,3R,4S,5R)-5-(6-amino-2-chloro-9H-purin-9-yl)-4-fluoro-3-hydroxytetrahydrofuran-2-yl)methoxy)-2-(3-(trifluoromethyl)benzyl)malonic acid], for which the IC50 worked out at 1.02 µM. Next, `Nc1nc(Cl)nc2c1ncn2[C@@H]1O[C@H](COC(Cc2ccc3ccccc3c2)(C(=O)O)C(=O)O)[C@@H](O)[C@@H]1F` [compound 17, 2-(((2R,3R,4S,5R)-5-(6-amino-2-chloro-9H-purin-9-yl)-4-fluoro-3-hydroxytetrahydrofuran-2-yl)methoxy)-2-(naphthalen-2-ylmethyl)malonic acid]: 1.81 µM; `Nc1nc(Cl)nc2c1ncn2[C@@H]1O[C@H](COC(CCCCO)(C(=O)O)C(=O)O)[C@@H](O)[C@@H]1F` [compound 18, 2-(((2R,3R,4S,5R)-5-(6-amino-2-chloro-9H-purin-9-yl)-4-fluoro-3-hydroxytetrahydrofuran-2-yl)methoxy)-2-(4-hydroxybutyl)malonic acid]: 6.32 µM; `Nc1nc(Cl)nc2c1ncn2[C@@H]1O[C@H](COC(CC(=O)O)(C(=O)O)C(=O)O)[C@@H](O)[C@@H]1F` [compound 19, 1-(((2R,3R,4S,5R)-5-(6-amino-2-chloro-9H-purin-9-yl)-4-fluoro-3-hydroxytetrahydrofuran-2-yl)methoxy)ethane-1,1,2-tricarboxylic acid]: 5.84 µM.

`Nc1nc(Cl)nc2c1ncn2[C@@H]1O[C@H](COC(Cc2ccc(C(F)(F)F)cc2)(C(=O)O)C(=O)O)[C@@H](O)[C@@H]1F` [compound 20, 2-(((2R,3R,4S,5R)-5-(6-amino-2-chloro-9H-purin-9-yl)-4-fluoro-3-hydroxytetrahydrofuran-2-yl)methoxy)-2-(4-(trifluoromethyl)benzyl)malonic acid] gave an IC50 of 0.611 µM. In the case of `CS(=O)(=O)c1ccc(CC(OC[C@H]2O[C@@H](n3cnc4c(N)nc(Cl)nc43)[C@@H](F)[C@@H]2O)(C(=O)O)C(=O)O)cc1` [compound 21, 2-(((2R,3R,4S,5R)-5-(6-amino-2-chloro-9H-purin-9-yl)-4-fluoro-3-hydroxytetrahydrofuran-2-yl)methoxy)-2-(4-(methylsulfonyl)benzyl)malonic acid] it was 0.51 µM.

Regarding `CN(C)C(=O)c1cccc(CC(OC[C@H]2O[C@@H](n3cnc4c(N)nc(Cl)nc43)[C@@H](F)[C@@H]2O)(C(=O)O)C(=O)O)c1` [compound 22], the IC50 is 1.14 µM.

Regarding `Nc1nc(Cl)nc2c1ncn2[C@@H]1O[C@H](COC(Cc2ccsc2)(C(=O)O)C(=O)O)[C@@H](O)[C@@H]1F` [compound 23], the IC50 came out at 0.48 µM.

As to `Nc1cccc(CC(OC[C@H]2O[C@@H](n3cnc4c(N)nc(Cl)nc43)[C@@H](F)[C@@H]2O)(C(=O)O)C(=O)O)c1` [compound 27], the half-inhibitory concentration (IC50) stood at 0.886 µM. Next, `CNC(=O)C(OC[C@H]1O[C@@H](n2cnc3c(N)nc(Cl)nc32)[C@@H](F)[C@@H]1O)P(=O)(O)O` (stereo partly drawn) [compound 29, (1-(((2R,3R,4S,5R)-5-(6-amino-2-chloro-9H-purin-9-yl)-4-fluoro-3-hydroxytetrahydrofuran-2-yl)methoxy)-2-(methylamino)-2-oxoethyl)phosphonic acid]: 5.72 µM; `Nc1nc(Cl)nc2c1ncn2[C@@H]1O[C@H](COC(Cc2ccc(C(F)(F)F)nc2)(C(=O)O)C(=O)O)[C@@H](O)[C@@H]1F` [compound 32, 2-(((2R,3R,4S,5R)-5-(6-amino-2-chloro-9H-purin-9-yl)-4-fluoro-3-hydroxytetrahydrofuran-2-yl)methoxy)-2-((6-(trifluoromethyl)pyridin-3-yl)methyl)malonic acid]: 2.32 µM; `N#CCC(OC[C@H]1O[C@@H](n2cnc3c(N)nc(Cl)nc32)[C@@H](F)[C@@H]1O)(C(=O)O)C(=O)O` [compound 33, 2-(((2R,3R,4S,5R)-5-(6-amino-2-chloro-9H-purin-9-yl)-4-fluoro-3-hydroxytetrahydrofuran-2-yl)methoxy)-2-(cyanomethyl)malonic acid]: 3.38 µM. In turn, `N#Cc1ccc(CC(OC[C@H]2O[C@@H](n3cnc4c(N)nc(Cl)nc43)[C@@H](F)[C@@H]2O)(C(=O)O)C(=O)O)cc1` [compound 34] gave an IC50 of 0.153 µM. Next, `N#Cc1cccc(CC(OC[C@H]2O[C@@H](n3cnc4c(N)nc(Cl)nc43)[C@@H](F)[C@@H]2O)(C(=O)O)C(=O)O)c1` [compound 35]: 0.261 µM. `Nc1nc(Cl)nc2c1ncn2[C@@H]1O[C@H](COC(Cc2ccc(OC(F)(F)F)cc2)(C(=O)O)C(=O)O)[C@@H](O)[C@@H]1F` [compound 36] came in with an IC50 of 0.197 µM. As for `Nc1nc(Cl)nc2c1ncn2[C@@H]1O[C@H](COC(Cc2ccc(CO)cc2)(C(=O)O)C(=O)O)[C@@H](O)[C@@H]1F` [compound 39], the concentration for half-maximal inhibition (IC50) came to 0.493 µM.

Consider `N#Cc1cccc(CC(OC[C@H]2O[C@@H](n3cnc4c(N)nc(N=[N+]=[N-])nc43)[C@@H](F)[C@@H]2O)(C(=O)O)C(=O)O)c1` [compound 40, 2-(((2R,3R,4S,5R)-5-(6-amino-2-azido-9H-purin-9-yl)-4-fluoro-3-hydroxytetrahydrofuran-2-yl)methoxy)-2-(3-cyanobenzyl)malonic acid], for which the half-inhibitory concentration (IC50) stood at 2.41 µM. Next, `CC(C)(C)OC(=O)Nc1nc(N=[N+]=[N-])nc2c1ncn2[C@@H]1O[C@H](COC(Cc2cccc(C#N)c2)(C(=O)O)C(=O)O)[C@@H](O)[C@@H]1F` [compound 41]: 4.88 µM. `Nc1nc(Cl)nc2c1ncn2[C@@H]1O[C@H](COC(Cc2cccc(C(=O)O)c2)(C(=O)O)C(=O)O)[C@@H](O)[C@@H]1F` [compound 42] returned an IC50 of 0.887 µM. Next, `[N-]=[N+]=Nc1nc(N)c2ncn([C@@H]3O[C@H](COC(Cc4cccc(-c5nnn[nH]5)c4)(C(=O)O)C(=O)O)[C@@H](O)[C@@H]3F)c2n1` [compound 43]: 9.92 µM; `Nc1nc(Cl)nc2c1ncn2[C@@H]1O[C@H](COC(Cc2cccc(F)c2)(C(=O)O)C(=O)O)[C@@H](O)[C@@H]1F` [compound 44]: 1.01 µM.

Turning to `Nc1nc(Cl)nc2c1ncn2[C@@H]1O[C@H](COC(Cc2ccc(F)cc2)(C(=O)O)C(=O)O)[C@@H](O)[C@@H]1F` [compound 47], the half-inhibitory concentration (IC50) is 0.669 µM.

`COc1cccc(CC(OC[C@H]2O[C@@H](n3cnc4c(N)nc(Cl)nc43)[C@@H](F)[C@@H]2O)(C(=O)O)C(=O)O)c1` [compound 49] gave a half-maximal inhibitory concentration (IC50) of 2.38 µM. In the case of `Nc1nc(Cl)nc2c1ncn2[C@@H]1O[C@H](COC(Cc2nnn[nH]2)(C(=O)O)C(=O)O)[C@@H](O)[C@@H]1F` [compound 50, 2-((1H-tetrazol-5-yl)methyl)-2-(((2R,3R,4S,5R)-5-(6-amino-2-chloro-9H-purin-9-yl)-4-fluoro-3-hydroxytetrahydrofuran-2-yl)methoxy)malonic acid] it was 6.37 µM. Compound `Nc1nc(Cl)nc2c1ncn2[C@@H]1O[C@H](COC(Cc2ccccc2)(C(=O)O)C(=O)O)[C@@H](N)[C@H]1O` [compound 51, 2-(((2S,3S,4R,5R)-3-amino-5-(6-amino-2-chloro-9H-purin-9-yl)-4-hydroxytetrahydrofuran-2-yl)methoxy)-2-benzylmalonic acid] had a concentration for half-maximal inhibition (IC50) of 4.34 µM.
